Experimental data as given in ChEMBL document CHEMBL1156829 (Proc Natl Acad Sci U S A, 2008).
“And” between values parts separate entries of the source, which are not always exact repeats. Identical values can stand only once.

How the values were obtained:
Plasmodium falciparum [1] = test: NOVARTIS: Inhibition of Plasmodium falciparum 3D7 (drug-susceptible) proliferation in erythrocyte-based infection assay; format: functional, organism-based
Plasmodium falciparum [2] = test: NOVARTIS: Inhibition of Plasmodium falciparum W2 (drug-resistant) proliferation in erythrocyte-based infection assay; format: functional, organism-based; details: read-out: EC50
[3] = (§1) NOVARTIS: Cytotoxicity against human hepatocellular carcinoma cell line (Huh7); format: toxicity, cell-based, Huh-7; details: Huh7 cells (hepatocellular carcinoma cell line)
Huh-7 = test: as §1; format: toxicity, cell-based; details: huh-7, read-out: CC50

Compound | EC50 (Plasmodium falciparum [1]; Plasmodium falciparum, 3D7) | EC50 (Plasmodium falciparum [2]; Plasmodium falciparum, W2) | EC50 (Plasmodium falciparum [2]) | CC50 [3] | CC50 (Huh-7) | EC50 (Plasmodium falciparum [1])
CCN1/C(=C/C=C/c2oc3ccc(-c4ccccc4)cc3[n+]2CC)Oc2ccc(-c3ccccc3)cc21 | > 1.72 µM | 1.06 µM | > 0.569 µM | > 10 µM | 10.7 µM | –
CCN1/C(=C/c2ccc3ccccc3[n+]2CC)Sc2c1ccc1ccccc21 | – | – | 0.682 µM and > 0.621 µM and 0.212 µM | > 10 µM | 7.14 µM | 0.225 µM and 0.631 µM and 0.334 µM
CCN(CC)c1ccc(C=Cc2cc[n+](Cc3ccc(F)cc3)cc2)cc1 | 0.241 µM | 0.769 µM | 0.578 µM | 5.29 µM | > 10 µM | 0.417 µM
CCN1C(=Cc2sc3ccc(O)cc3[n+]2CC)C=Cc2cc(C)ccc21 | – | 0.291 µM | 0.383 µM | 5.79 µM | > 10 µM | 0.188 µM and 0.376 µM
CCN1/C(=C/c2ccc3cc(OC)ccc3[n+]2CC)Sc2cc(C)ccc21 | 0.161 µM | – | 0.275 µM and 0.0862 µM | 19.2 µM | 11.7 µM | 0.0907 µM
COc1ccc(C=C2SC(Nc3ccc(F)cc3)=NC2=O)c(OC)c1 | 0.266 µM | 0.753 µM | 0.532 µM | 12.2 µM | 12 µM | 0.277 µM
Cc1cc(/C=C2\Sc3ccccc3N2C)[n+](C)c2ccccc12 | – | 0.094 µM | 0.0802 µM | 6.37 µM | 11.5 µM | 0.0906 µM and 0.0392 µM
CCN1/C(=C/c2sc3ccccc3[n+]2CC)Sc2ccccc21 | – | – | 0.0108 µM | – | 11.1 µM | 0.187 µM
CCOc1ccc(Br)cc1/C=C1\SC(=Nc2ccccc2CC)N(c2ccccc2CC)C1=O | – | – | > 1.25 µM and 4.86 µM | – | > 100 µM | 8.33 µM and > 0.835 µM
CN1/C(=C/c2cccc[n+]2C)Sc2ccccc21 | 0.138 µM | 0.223 µM | 0.293 µM | – | > 100 µM | 0.23 µM
CCOC(=O)c1ccc(-n2c(C)cc(/C=C3\SC(=Nc4ccc(Cl)cc4)NC3=O)c2C)cc1 | – | 1.7 µM | 1.42 µM | – | > 100 µM | 0.844 µM and 3.37 µM
C=CCN1C=CC(=Cc2sc3ccccc3[n+]2C)c2ccccc21 | – | – | 0.115 µM | – | 14.2 µM | 0.0897 µM
CCN1C(=Cc2sc3cc(NC(C)=O)ccc3[n+]2CC)C=Cc2cc(C)ccc21 | – | – | 0.581 µM | – | > 90.6 µM | 0.161 µM
Cc1[nH]c2ccccc2c1/C=C/c1cc[n+](C)cc1 | 0.259 µM | 0.116 µM | – | – | > 10 µM | –
CCN1/C(=C/c2cccc[n+]2C)Sc2ccc(C)cc21 | – | – | 0.545 µM and 2.28 µM | – | > 100 µM | 0.487 µM and 1.35 µM
CCN(CC)c1ccc(C=Cc2cccc[n+]2CC)cc1 | – | – | 0.29 µM | – | > 10 µM | 0.00244 µM
